This note sets out measurements from patent US6660309B2, “Antitumor agent” (Biozak, Inc., priority 2001, dated 2003).

One assay has as its system βTC-6 cells. In words: Tolbutamide-induced insulin secretion in βTC-6 cells (FIG. 2). Format: cell-based. The method, then:
FIG. 2 is a graph showing the effect of Composition A on tolbutamide-induced insulin secretion in βTC-6 cells.
(§1) In order to avoid interference from the natural insulin secretagogue glucose, the effect of Composition A on insulin secretion was studied under glucose-free conditions. The sulfonylurea compound, tolbutamide was used as the insulin secretagogue in the studies of the effect of Composition A on stimulated insulin secretion.
(§2) Insulin assays were performed using the rat insulin assay kit purchased from Crystal Chemists, Inc. (Chicago, Ill., USA). This kit uses a in an Enzyme Linked Immunosorbent Assay (non-competitive sandwich method). The assay was performed according to the manufacturer's protocol. Briefly, the standard or sample (5 μl) diluted with a sample diluent was added to the wells of a multi-well polystyrene plate. The wells were precoated with antiinsulin antibody. After 2 hours of incubation, the wells were thoroughly washed with a washing buffer. A peroxidase-conjugated antiinsulin antibody solution was then added to the well. […] The color was read in an microplate reader using a 405 filter. […]
(§3) The effect of Composition A on tolbutamide-induced insulin secretion in HIT-T15 and βTC-6 cells is shown in […]. […] Samples were measured 1 hour later. […]

A further assay concerns HIT-T15 cells. Kind of assay: Tolbutamide-induced insulin secretion in HIT-T15 cells (FIG. 3). Format: cell-based. Particulars: FIG. 3, tolbutamide alone, 1 hour; without tolbutamide about 0.17. How it is done: FIG. 3 is a graph showing the effect of Composition A on tolbutamide-induced insulin secretion in HIT-T15 cells.
as §1, §2, §3

For `CCCCNC(=O)NS(=O)(=O)c1ccc(C)cc1` [tolbutamide], in the assay with βTC-6 cells (FIG. 2, tolbutamide 10 μg/ml alone, 1 hour, without tolbutamide 0.9), the “Insulin production with tolbutamide alone” value is reported as 1.2 ng/ml/mg protein. Also, the “More insulin secreted by tolbutamide-treated cells than by untreated cells” value with βTC-6 cells (βTC-6, 1-hour period following glucose deprivation and replacement of the medium) is recorded as “approximately 30%”. In addition, in the assay with HIT-T15 cells, the “Insulin secretion with tolbutamide alone” value is on record as “about 0.3 ng/ml/mg protein”.
